What was measured:
[1] = biological target: T1, human ether-a-go-go related gene (hERG) channel (Homo sapiens, UniProt Q12809); assay: hERG test (whole cell patch clamp, QPatch); assay type: cell-based; settings: CHO cells expressing hERG, tail peak current
T1 construct: expressed in transfected cells; host or cells: CHO cells
Text: For the purpose of assessing risk of an electrocardiogram QT interval prolongation, effects on delayed rectifier K+ current (IKr), which plays an important role in the ventricular repolarization process of the compound of the present invention, was studied using CHO cells expressing human ether-a-go-go related gene (hERG) channel.
A cell was retained at a membrane potential of −80 mV by whole cell patch clamp method using an automated patch clamp system (QPatch; Sophion Bioscience A/S). After application of leak potential at −50 mV, IKr induced by depolarization pulse stimulation at +20 mV for 2 seconds and, further, repolarization pulse stimulation at −50 mV for 2 seconds was recorded.
After the generated current was stabilized, extracellular solution (NaCl: 145 mmol/L, KCl: 4 mmol/L, CaCl2:2 mmol/L MgCl2:1 mmol/L, 1 mmol/L, HEPES (4-(2-hydroxyethyl)-1-piperazineethanesulfonic acid: 10 mmol/L, glucose:10 mmol/L pH=7.4) in which the compound of the present invention have been dissolved at an objective concentration was applied to the cell under the room temperature condition for 10 minutes. From the recording IKr, an absolute value of the tail peak current was measured based on the current value at the resting membrane potential using an analysis software (QPatch assay software; Sophion Bioscience A/S). Further, the % inhibition relative to the tail peak current before application of the compound of the present invention was calculated, and compared with the vehicle-applied group (0.1% dimethyl sulfoxide solution) to assess influence of the compound of the present invention on IKr.

Metabolic stability test = assay type: in vitro ADME; settings: human liver microsomes 0.5 mg protein/mL, NADPH, 37° C.
Method: Using a commercially available pooled human liver microsomes, a compound of the present invention was reacted for a constant time, a remaining rate was calculated by comparing a reacted sample and an unreacted sample, thereby, a degree of metabolism in liver was assessed.
A reaction was performed (oxidative reaction) at 37° C. for 0 minute or 30 minutes in the presence of 1 mmol/L NADPH in 0.2 mL of a buffer (50 mmol/L Tris-HCl pH 7.4, 150 mmol/L potassium chloride, 10 mmol/L magnesium chloride) containing 0.5 mg protein/mL of human liver microsomes. After the reaction, 50 μL of the reaction solution was added to 100 μL of a methanol/acetonitrile=1/1 (v/v), mixed and centrifuged at 3000 rpm for 15 minutes. The compound of the present invention in the supernatant was quantified by LC/MS/MS or solid phase extraction (SPE)/MS, and a remaining amount of the compound of the present invention after the reaction was calculated, letting a compound amount at 0 minute reaction time to be 100%.

[2] = biological target: T2, recombinant BACE1 protein (Homo sapiens, UniProt P56817); assay: BACE1 biochemical FRET based assay; settings: for Selectivity: BACE2 IC50 relative to BACE1 IC50; for IC50: FRET, pH 5.0, 450 min at room temperature
T2 construct: recombinant BACE1 protein in a final concentration of 0.04 μg/mL
Text: (§1) This assay is a Fluorescence Resonance Energy Transfer Assay (FRET) based assay. The substrate for this assay is an APP derived 13 amino acids peptide that contains the ‘Swedish’ Lys-Met/Asn-Leu mutation of the amyloid precursor protein (APP) beta-site secretase cleavage site. This substrate also contains two fluorophores: (7-methoxycoumarin-4-yl) acetic acid (Mca) is a fluorescent donor with excitation wavelength at 320 nm and emission at 405 nm and 2,4-dinitrophenol (Dnp) is a proprietary quencher acceptor. […] Upon cleavage by BACE1, the fluorophore Mca is separated from the quenching group Dnp, restoring the full fluorescence yield of the donor. The increase in fluorescence is linearly related to the rate of proteolysis.
Briefly in a 384-well format recombinant BACE1 protein in a final concentration of 0.04 μg/mL was incubated for 450 minutes at room temperature with 10 μm substrate in incubation buffer (final concentrations: 33.3 mM Citrate buffer pH 5.0, 0.033% PEG, 3% DMSO) in the absence or presence of compound. Next the amount of proteolysis was directly measured by fluorescence measurement at T=0′-120′ and T=450′ (excitation at 320 nm and emission at 405 nm). Results were expressed in RFU (Relative Fluorescence Units), as difference between T450 and Tx (Tx is chosen depending on the reaction speed between 0 and 120 minutes).
(§2) A best-fit curve was fitted by a minimum sum of squares method to the plot of % Controlmin versus compound concentration. From this an IC50 value (inhibitory concentration causing 50% inhibition of activity) can be obtained.

[3] = biological target: T3, recombinant BACE2 protein (Homo sapiens, UniProt Q9Y5Z0); assay: BACE2 biochemical FRET based assay; settings: pH 5.0, 450 min at room temperature
T3 construct: recombinant BACE2 protein in a final concentration of 0.4 μg/mL
T3 sequence (Q9Y5Z0 63-518): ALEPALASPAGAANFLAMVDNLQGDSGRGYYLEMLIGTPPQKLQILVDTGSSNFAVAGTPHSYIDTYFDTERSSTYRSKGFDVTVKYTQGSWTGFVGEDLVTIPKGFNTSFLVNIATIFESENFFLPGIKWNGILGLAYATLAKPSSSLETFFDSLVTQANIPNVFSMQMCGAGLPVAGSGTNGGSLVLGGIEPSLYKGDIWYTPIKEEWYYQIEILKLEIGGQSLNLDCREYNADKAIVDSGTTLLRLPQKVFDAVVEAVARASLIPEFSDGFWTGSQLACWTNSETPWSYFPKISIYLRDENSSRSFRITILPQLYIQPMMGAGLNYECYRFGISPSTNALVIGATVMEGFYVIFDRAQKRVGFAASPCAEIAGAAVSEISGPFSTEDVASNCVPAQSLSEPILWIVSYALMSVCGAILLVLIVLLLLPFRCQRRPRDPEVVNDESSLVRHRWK
Text: as §1, with “assay” for “assay is an APP derived 13 amino acids peptide that”, “beta-secretase” for “beta-site secretase”, “the beta-secretase,” for “BACE1,”
Briefly in a 384-well format recombinant BACE2 protein in a final concentration of 0.4 μg/mL was incubated for 450 minutes at room temperature with 10 μM substrate in incubation buffer (final concentrations: 33.3 mM Citrate buffer pH 5.0, 0.033% PEG, 2% DMSO) in the absence or presence of compound. Next the amount of proteolysis was directly measured by fluorescence measurement at T=0 and T=450 (excitation at 320 nm and emission at 405 nm). Results were expressed in RFU (Relative Fluorescence Units), as difference between T450 and T0.
as §2

T2 sequence (P56817 46-501): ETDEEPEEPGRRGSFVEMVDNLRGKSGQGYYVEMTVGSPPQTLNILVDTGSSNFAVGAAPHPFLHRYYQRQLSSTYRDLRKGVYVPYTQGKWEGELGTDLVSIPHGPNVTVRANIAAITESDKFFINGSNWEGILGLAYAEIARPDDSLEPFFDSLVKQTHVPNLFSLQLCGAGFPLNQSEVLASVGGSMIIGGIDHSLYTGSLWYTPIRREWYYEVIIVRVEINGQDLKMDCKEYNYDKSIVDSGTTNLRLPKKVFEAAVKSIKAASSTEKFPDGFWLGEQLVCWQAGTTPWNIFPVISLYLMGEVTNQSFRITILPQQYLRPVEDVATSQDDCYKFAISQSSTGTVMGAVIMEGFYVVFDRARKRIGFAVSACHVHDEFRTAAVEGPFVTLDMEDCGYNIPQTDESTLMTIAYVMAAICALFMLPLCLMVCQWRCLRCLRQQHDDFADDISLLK
T1 sequence (Q12809 whole entry): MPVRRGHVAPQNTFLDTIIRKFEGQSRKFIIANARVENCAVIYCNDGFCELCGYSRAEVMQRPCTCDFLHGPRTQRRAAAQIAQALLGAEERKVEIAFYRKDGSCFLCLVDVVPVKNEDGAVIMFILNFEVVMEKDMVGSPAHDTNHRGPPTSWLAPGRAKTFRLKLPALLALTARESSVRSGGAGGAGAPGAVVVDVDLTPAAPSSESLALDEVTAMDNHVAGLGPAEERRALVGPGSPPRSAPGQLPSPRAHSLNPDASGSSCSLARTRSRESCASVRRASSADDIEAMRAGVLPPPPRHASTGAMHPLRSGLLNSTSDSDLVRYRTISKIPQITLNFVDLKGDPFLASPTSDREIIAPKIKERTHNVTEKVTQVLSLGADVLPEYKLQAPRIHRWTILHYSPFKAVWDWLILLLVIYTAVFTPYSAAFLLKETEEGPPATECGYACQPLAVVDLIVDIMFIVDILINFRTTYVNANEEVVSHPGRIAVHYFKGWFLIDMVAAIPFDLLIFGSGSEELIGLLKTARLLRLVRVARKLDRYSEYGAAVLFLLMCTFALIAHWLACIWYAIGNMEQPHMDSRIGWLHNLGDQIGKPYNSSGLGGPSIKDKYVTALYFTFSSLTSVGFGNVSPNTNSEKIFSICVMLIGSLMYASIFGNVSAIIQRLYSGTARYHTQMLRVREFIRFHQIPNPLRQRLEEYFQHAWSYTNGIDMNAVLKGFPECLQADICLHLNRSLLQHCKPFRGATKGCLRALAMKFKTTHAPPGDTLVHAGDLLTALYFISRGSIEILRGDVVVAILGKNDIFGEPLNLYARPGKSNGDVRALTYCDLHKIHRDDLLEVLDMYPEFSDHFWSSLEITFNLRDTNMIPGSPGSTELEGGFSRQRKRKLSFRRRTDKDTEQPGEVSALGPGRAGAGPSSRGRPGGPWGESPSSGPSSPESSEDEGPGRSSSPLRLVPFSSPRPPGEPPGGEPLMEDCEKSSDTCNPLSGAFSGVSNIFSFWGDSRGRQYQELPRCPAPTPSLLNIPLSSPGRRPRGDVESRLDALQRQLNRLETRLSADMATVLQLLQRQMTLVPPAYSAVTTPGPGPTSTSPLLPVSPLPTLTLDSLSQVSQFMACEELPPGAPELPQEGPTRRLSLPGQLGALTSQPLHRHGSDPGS

## NC1=N[C@](CF)(c2cc(NC(=O)c3cnc(OCF)cn3)ccc2F)[C@H]2[C@H](CC(F)F)OC[C@H]2O1 [Compound I-116]
[1]
  hERG inhibition (%) at 3 μM: 33.9%
Metabolic stability test
  Remaining rate (%) at 30 min: 92%
[2]
  Selectivity: 31
  IC50: 13 nM
[3]
  IC50: 389 nM

## C[C@@H]1OC[C@H]2[C@@H]1OC(N)=N[C@]2(CF)c1cc(NC(=O)c2cnc(OCF)cn2)ccc1F [Compound I-082]
[1]
  hERG inhibition (%) at 3 μM: 6.7%
Metabolic stability test
  Remaining rate (%) at 30 min: 92%
[2]
  Selectivity: 28
  IC50: 11 nM
[3]
  IC50: 309 nM
